The term melting point denotes the temperature of the solid-liquid transition. For orientation: inhibition means the relative decrease from the control value, in per cent. As usually defined, the IC50 is the concentration needed to halve the response being measured. A lower IC50 goes with inhibition by little substance. For orientation: Kd means the concentration at which binding is half-saturated. A high value points to weaker binding.

For one series, the target named is T1, human Edg-1 (S1P1) (Homo sapiens, UniProt P21453).
T1 construct: expressed in transfected cells; host or cells: HEK-293
In words: S1P1 binding inhibition test (membrane, [33P]-S1P). The conditions noted are these: for inhibition at 10 µM: compound 10 μM, [33P]-S1P 0.1 nM, human Edg-1 (S1P1) HEK-293 membrane fraction, read-out: Binding test (membrane) % inhibition (10 μM); for IC50: membrane system binding test, various concentrations. As to the method:
The membrane fraction was obtained by treating the cells with a solubilizing buffer (1 mM Tris/HCl, pH 7.2) for 10 minutes on ice, centrifuging at 1000×g for 5 minutes to remove insoluble fractions, and then centrifuging at 40000×g for 30 minutes at 4° C. The resulting membrane fraction was dissolved in a binding buffer (20 mM Tris-HCl, pH 7.4, 100 mM NaCl, 15 mM NaF, 2 mM deoxypyridoxine, 4 mg/mL fatty acid-free BSA), and then [^33P]-S1P (manufactured by ARC, final concentration 0.1 nM) and a DMSO solution (final concentration of the compound 10^−5 M, final concentration of DMSO 0.1%) of the test compound were added. Thereafter, the mixture was stirred and then treated for one hour at 30° C. Using a harvester, the membrane fraction was harvested onto unifilter-96 GF/C filter (manufactured by Perkin Elmer), washing was carried out four times with the binding buffer, and the filter was dried. Twenty five μL Microscint 0 (manufactured by Perkin Elmer) was added, and radioactivity was measured using Top Count NXT (manufactured by Packard) to calculate the amount (A) of [^33P]-S1P bound to the membrane fraction at the time when the compound was added.
The same procedure was carried out in the absence of the test compound, and the amount (B) of [^33P]-S1P bound was calculated. Further, the same procedure was carried out in the absence of the test compound by use of HEK-293 cells to which no Edg-1 (S1P1) gene was introduced, and the background amount (C) of [^33P]-S1P bound was calculated.
Inhibition rate (%)=[1−(A−C)/(B−C)]×100.
Moreover, the concentration required for a test compound to produce 50% inhibition of the binding caused in the absence of the test compound was also calculated (IC50). The above membrane system binding test was performed in the presence of a test compound at various concentrations to calculate the inhibition rate of Edg-1(S1P1) binding at each concentration according to the above equation, followed by calculating an IC50 value for each compound with data analysis software, Origin (Lightstone Corp., Japan).

T1 sequence (P21453 whole entry): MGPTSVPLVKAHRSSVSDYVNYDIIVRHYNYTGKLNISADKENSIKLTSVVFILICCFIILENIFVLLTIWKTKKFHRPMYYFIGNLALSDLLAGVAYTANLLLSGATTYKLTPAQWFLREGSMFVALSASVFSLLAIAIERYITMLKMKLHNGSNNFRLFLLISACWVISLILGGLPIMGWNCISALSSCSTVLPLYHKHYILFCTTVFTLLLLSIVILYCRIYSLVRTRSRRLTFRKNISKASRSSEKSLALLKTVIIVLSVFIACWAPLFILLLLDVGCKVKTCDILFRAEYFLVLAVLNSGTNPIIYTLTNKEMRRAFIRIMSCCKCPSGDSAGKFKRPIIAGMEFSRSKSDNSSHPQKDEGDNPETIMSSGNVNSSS

`CCc1c(C(C)NS(=O)(=O)c2ccc3c(Cl)cccc3c2)nn(C)c1Oc1ccc(C)cc1` (centres unmarked) [Compound 181] returned a melting point of 154.5 to 155.5 °C.
Still for that read-out and setting: with `CCn1c(C(C)NS(=O)(=O)c2ccc3c(Cl)cccc3c2)nc(Cl)c1Oc1ccc(C)cc1` (centres unmarked) [Compound 182] the figure was 137.5 to 138.5 °C.
The compound `CCn1c(C(C)NS(=O)(=O)c2ccc3c(Cl)cccc3c2)cnc1Oc1cccc(N2CCN(C)CC2)c1` (centres unmarked) [Compound 185] had a melting point of 205.5 to 206 °C. Also, on human Edg-1 (S1P1), the inhibition at 10 µM amounted to 100% and the IC50 is 3.7 nM.
`CCn1c(C(C)NS(=O)(=O)c2ccc(Cl)c(Cl)c2)cnc1Oc1ccc(F)cc1` (centres unmarked) [Compound 186] returned a melting point of 156 to 157 °C. Further, on human Edg-1 (S1P1), the inhibition at 10 µM amounted to 99.8% and the IC50 was not above 70 nM.
Taken in the same sequence, the figures for `CCn1c(C(C)NS(=O)(=O)c2ccc3c(Cl)cccc3c2)cnc1Oc1ccc(F)cc1` (centres unmarked) [Compound 187] were 138 to 141 °C, 101% and not above 35 nM.
In the case of `CCn1c(Oc2ccc(F)cc2)nc(C)c1C(C)NS(=O)(=O)c1ccc(Cl)c(Cl)c1` (centres unmarked) [Compound 188, 3,4-Dichloro-N-{1-[3-ethyl-2-(4-fluorophenoxy)-5-methyl-3H-imidazol-4-yl]-ethyl}-benzenesulfonamide], the melting point was 119.5 to 120.5 °C. Moreover, the inhibition at 10 µM on human Edg-1 (S1P1) amounted to 100%.
In the case of `CCn1c(C(C)NS(=O)(=O)c2ccc(Cl)c(Cl)c2)cnc1Oc1cccc(N2CCOCC2)c1` (centres unmarked) [Compound 190], the melting point fell in the range of 167 to 169 °C. Besides, on human Edg-1 (S1P1), the inhibition at 10 µM was found to be 101% and the IC50 was determined as 10.9 nM.
With `CCC(NS(=O)(=O)c1ccc(Cl)c(Cl)c1)c1cnc(Oc2ccc(F)cc2)n1CC` (centres unmarked) [Compound 191, 3,4-Dichloro-N-{1-[3-ethyl-2-(4-fluorophenoxy)-3H-imidazol-4-yl]-propyl}-benzenesulfonamide], the inhibition at 10 µM on human Edg-1 (S1P1) worked out at 100%.
Consider `CCC(NS(=O)(=O)c1ccc2c(Cl)cccc2c1)c1cnc(Oc2ccc(F)cc2)n1CC` (centres unmarked) [Compound 192], for which the melting point was 118 to 120 °C. Also, on human Edg-1 (S1P1), the inhibition at 10 µM is 101% and the IC50 was 23 nM.
`CCn1c(C(Cc2ccccc2)NS(=O)(=O)c2ccc(Cl)c(Cl)c2)cnc1Oc1ccc(F)cc1` (centres unmarked) [Compound 193]: the melting point lay in the range of 114.5 to 115.5 °C. In addition, the inhibition at 10 µM at human Edg-1 (S1P1) amounted to 98.6%.
Compound `CCn1c(C(Cc2ccccc2)NS(=O)(=O)c2ccc3c(Cl)cccc3c2)cnc1Oc1ccc(F)cc1` (centres unmarked) [Compound 194] had a melting point of 172.5 to 174 °C. On human Edg-1 (S1P1), the inhibition at 10 µM stood at 93% and the IC50 is not above 70 nM.
Taken in the same sequence, the figures for `CCn1c(C(C)NS(=O)(=O)c2ccc(Cl)c(Cl)c2)cnc1Oc1ccc(C)nc1` (centres unmarked) [Compound 195] were 174 to 175 °C, 96.1% and 20 nM.
In turn, `CCn1c(C(Cc2ccc(C)cc2)NS(=O)(=O)c2ccc(Cl)c(Cl)c2)cnc1Oc1ccc(F)cc1` (centres unmarked) [Compound 196] returned a melting point of 123.5 to 124 °C. At human Edg-1 (S1P1), the inhibition at 10 µM came to 88.9%.
`CCn1c(C(Cc2ccc(C)cc2)NS(=O)(=O)c2ccc3c(Cl)cccc3c2)cnc1Oc1ccc(F)cc1` (centres unmarked) [Compound 197] had a melting point of 166 to 167 °C. Besides, the inhibition at 10 µM on human Edg-1 (S1P1) came out at 95.3%.
In turn, `CCn1c(C(C)NS(=O)(=O)c2ccc(Cl)c(Cl)c2)cnc1Oc1cccc(N(C)C)c1` (centres unmarked) [Compound 198] came in with a melting point of 171 to 172 °C. Moreover, on human Edg-1 (S1P1), the inhibition at 10 µM came out at 97.8% and the IC50 was determined as 10.3 nM.
In turn, `CCn1c(C(Cc2ccc(F)cc2)NS(=O)(=O)c2ccc(Cl)c(Cl)c2)cnc1Oc1ccc(F)cc1` (centres unmarked) [Compound 199] registered a melting point of 145.5 to 146.5 °C. Moreover, the inhibition at 10 µM on human Edg-1 (S1P1) is 97.3%.
As to `CCn1c(C(Cc2ccc(F)cc2)NS(=O)(=O)c2ccc3c(Cl)cccc3c2)cnc1Oc1ccc(F)cc1` (centres unmarked) [Compound 200], the melting point lay within 175 to 176 °C. Besides, at human Edg-1 (S1P1), the inhibition at 10 µM was 97.1% and the IC50 was determined as 17 nM.
In turn, `CCn1c(C(NS(=O)(=O)c2ccc(Cl)c(Cl)c2)c2ccccc2)cnc1Oc1ccc(F)cc1` (centres unmarked) [Compound 201] gave a melting point of 157.5 to 158 °C.
Same read-out and setting: with `CCn1c(Oc2ccc(F)cc2)nc(-c2ccccc2)c1C(C)NS(=O)(=O)c1ccc(Cl)c(Cl)c1` (centres unmarked) [Compound 227] the figure was 216.5 to 217.5 °C.
Take `CCn1c(C(C)NS(=O)(=O)c2ccc(Cl)c(Cl)c2)cnc1Oc1cccc(NS(C)(=O)=O)c1` (centres unmarked) [Compound 234, 3,4-Dichloro-N-{1-[3-ethyl-2-(3-methanesulfonylaminophenoxy)-3H-imidazol-4-yl]-ethyl}-benzenesulfonamide]: on human Edg-1 (S1P1), the inhibition at 10 µM was found to be 98.1% and the IC50 is not above 35 nM.
`CCCCCCCCCCCCCCCCCCOc1ncc(C(C)NS(=O)(=O)c2ccc(Cl)c(Cl)c2)n1CC` (centres unmarked) [Compound 238]: the melting point is 117 to 118 °C.
Same read-out and setting: with `CCn1c(C(C)NS(=O)(=O)c2ccc(Cl)c(Cl)c2)cnc1OC` (centres unmarked) [Compound 240] the figure was 199 to 200 °C.
Consider `CCn1c(C(C)NS(=O)(=O)c2ccc(Cl)c(Cl)c2)cnc1Sc1ccc(C)cc1` (centres unmarked) [Compound 241, 3,4-Dichloro-N-[1-(3-ethyl-2-p-tolylsulfanyl-3H-imidazol-4-yl)-ethyl]-benzenesulfonamide], for which the inhibition at 10 µM at human Edg-1 (S1P1) came to 82.6%.
Same read-out and setting: with `CCn1c(C(C)N(C)S(=O)(=O)c2ccc(Cl)c(Cl)c2)cnc1Oc1ccc(Cl)cc1` (centres unmarked) [Compound 248, 3,4-Dichloro-N-{1-[2-(4-chlorophenoxy)-3-ethyl-3H-imidazol-4-yl]-ethyl}-N-methyl-benzenesulfonamide] the figure was 90.2%; with `CCn1c(C(C)NS(=O)(=O)c2ccc(Cl)c(Cl)c2)cnc1Oc1cccc(-n2cccc2)c1` (centres unmarked) [Compound 249, 3,4-Dichloro-N-{1-[3-ethyl-2-(3-pyrrol-1-yl-phenoxy)-3H-imidazol-4-yl]-ethyl}-benzenesulfonamide], 100%.
As for `CCn1c(C(C)NS(=O)(=O)c2ccc(Cl)c(Cl)c2)cnc1Oc1ccc2cc[nH]c2c1` (centres unmarked) [Compound 250, 3,4-Dichloro-N-{1-[3-ethyl-2-(1H-indol-6-yloxy)-3H-imidazol-4-yl]-ethyl}-benzenesulfonamide], at human Edg-1 (S1P1), the inhibition at 10 µM amounted to 101% and the IC50 was 20.5 nM.
Take `CCn1c(C(C)NS(=O)(=O)c2ccc(Cl)c(Cl)c2)cnc1OCCCN1CCN(C)CC1` (centres unmarked) [Compound 251]: the inhibition at 10 µM at human Edg-1 (S1P1) turned out to be 96.3%.
For `CC[C@@H](NS(=O)(=O)c1ccc(Cl)c(Cl)c1)c1cnc(Oc2ccc(F)cc2)n1CC` [Compound 253, (R)-(+)-3,4-Dichloro-N-{1-[3-ethyl-2-(4-fluorophenoxy)-3H-imidazol-4-yl]-propyl}-benzenesulfonamide], at human Edg-1 (S1P1), the inhibition at 10 µM came out at 100% and the IC50 was determined as 27.5 nM.
In the case of `CC[C@H](NS(=O)(=O)c1ccc(Cl)c(Cl)c1)c1cnc(Oc2ccc(F)cc2)n1CC` [Compound 254, (S)-(−)-3,4-Dichloro-N-{1-[3-ethyl-2-(4-fluorophenoxy)-3H-imidazol-4-yl]-propyl}-benzenesulfonamide], at human Edg-1 (S1P1), the inhibition at 10 µM was determined as 68.6%.
On to `CCCCCCCCCCCCC/C=C/[C@@H](O)[C@@H](N)COP(=O)(O)O` [[^33P]-S1P, Sphingosine-1-phosphate], for which binding at human Edg-1 (S1P1) (human Edg-1 (S1P1) gene transferred HEK-293 membrane fraction) was put at a Kd of 0.15 nM.

These data come from US7994204B2, “Binding inhibitor of sphingosine-1-phosphate” (Taisho Pharmaceutical Co., Ltd, priority 2006, dated 2011).
